Results published in article PMC5841354, “Gomesin peptides prevent proliferation and lead to the cell death of devil facial tumour disease cells” (Cell Death Discovery, 2018).

What was measured:
DFTD4 cells [1] = experiment: Reactive oxygen species (Carboxy-H2DCFDA, flow cytometry); type: cell-based, Tasmanian devil (Sarcophilus harrisii); conditions: 50 μg/mL, 24 h, vs. untreated
Method: An Amplex Red Hydrogen Peroxidase assay kit (Invitrogen, Australia) was used to measure reactive oxygen species (ROS) generation in DFTD4 cells. A fluorescence probe that detects intracellular H2O2, Carboxy-H2DCFDA, was added 30 min prior to collecting cells to measure ROS production in DFTD4 cells that were previously treated with gomesin peptides at 50 µg/mL for 24 h. Fluorescent cells were washed twice with PBS prior to analysis on a FACSCalibur flow cytometer (BD Biosciences, USA) using excitation and emission wavelengths of 492 nm and 517 nm, respectively. Approximately 10,000 events were recorded per sample and the readout was analysed using FlowJo software v10.06 (FlowJo, USA).

DFTD2 cells = experiment: MTT cell viability, DFTD2 cells; type: cell-based, Tasmanian devil (Sarcophilus harrisii); conditions: Table 3, 48 h
Description: (§1) All DFTD (DFTD1, DFTD2, and DFTD4) and fibroblast (FIBS) cell lines were obtained from the Department of Primary Industries, Parks, Water, and Environment, State Government of Tasmania (DPIPWE) and were established as part of management plan and adhere to a standard operating practice. The DFTD1 cell line with catalogue number 3287 is derived from the tumour from a female devil (tag number: 06/2887) collected at St Marys, Eastern Tasmania in 2006. DFTD2 cell line with catalogue number 8961 was developed from a tumour from a male devil (tag number: 12/0625) collected at Kempton, Northern Tasmania in 2012. The DFTD4 cell line with catalogue number 4099 was developed from the tumour of a male devil (tag number: 07/0192) that was collected at Freycinet, east coast of Tasmania in 2007 and Fibroblasts cells (FIBS) with catalogue number 497 were obtained from a healthy devil male pup (tag number: 05/0962) held at Mount Pleasant, Southeastern of Tasmania in 2005. […]
(§2) Cell viability as an indicator of the number of viable and proliferative cells was measured by MTT according to the protocol of the manufacturer (Sigma-Aldrich, Australia). […] Plates were measured after 48 h at 540 nm absorbance in a microplate reader (BIOTEK PowerWave XS, USA). […]

DFTD4 cells [2] = experiment: MTT cell viability, DFTD4 cells; type: cell-based, Tasmanian devil (Sarcophilus harrisii)
Description: (§3) All DFTD (DFTD1, DFTD2, and DFTD4) and fibroblast (FIBS) cell lines were obtained from the Department of Primary Industries, Parks, Water, and Environment, State Government of Tasmania (DPIPWE) and were established as part of management plan and adhere to a standard operating practice. The DFTD1 cell line with catalogue number 3287 is derived from the tumour from a female devil (tag number: 06/2887) collected at St Marys, Eastern Tasmania in 2006. DFTD2 cell line with catalogue number 8961 was developed from a tumour from a male devil (tag number: 12/0625) collected at Kempton, Northern Tasmania in 2012. The DFTD4 cell line with catalogue number 4099 was developed from the tumour of a male devil (tag number: 07/0192) that was collected at Freycinet, east coast of Tasmania in 2007 and Fibroblasts cells (FIBS) with catalogue number 497 were obtained from a healthy devil male pup (tag number: 05/0962) held at Mount Pleasant, Southeastern of Tasmania in 2005.
(§4) Devil Facial Tumor cancer cell lines, and the control Tasmanian Devil fibroblast (FIBS) healthy cell line were maintained in a humidified incubator at 35 °C and 5% CO2. The DFTD cell lines were cultured in RPMI-1640 medium supplemented with 10% FCS, and 2 mM Glutamax. The FIBS was grown in GIBCO AmnioMAX-C100 Basal Medium liquid, containing AmnioMAX-C100 supplement. Penicillin/streptomycin (PS) (100 U/ml each) was added to both media. The cells were passaged at ~90% confluency. Functional studies were performed with passages up to 20. All cell lines were mycoplasma free.
(§5) Cell viability as an indicator of the number of viable and proliferative cells was measured by MTT according to the protocol of the manufacturer (Sigma-Aldrich, Australia). In brief, 8000 DFTD and 5000 FIBS cells/well were seeded in a 96-flat adherent microtiter well plate for 24 h to allow cell adhesion. Gomesin peptides and/or analogues were then added to the plates to measure MTT reduction. Plates were measured after 48 h at 540 nm absorbance in a microplate reader (BIOTEK PowerWave XS, USA). 0.1% SDS was used as a positive control (100% toxicity). A row of untreated cells was used to define 100% viability and blank wells containing only media were used to extract background. The concentration of gomesin peptides causing 50% inhibition (EC50) in DFTD and FIBS cells was determined using GraphPad Prism Software (Graphpad Inc, USA).

DFTD1 cells = experiment: MTT cell viability, DFTD1 cells; type: cell-based, Tasmanian devil (Sarcophilus harrisii); conditions: Table 3, 48 h
Description: as §1, §2

FIBS cells = experiment: MTT cell viability, non-transformed fibroblasts (FIBS); type: cell-based, Tasmanian devil (Sarcophilus harrisii); conditions: 50 µg/mL, 48 h
Description: as §3, §4, §5

DFTD4 cells [3] = experiment: Annexin V-FITC/PI apoptosis and necrosis; type: cell-based, Tasmanian devil (Sarcophilus harrisii); conditions: 50 µg/mL, 24 h
Method: Apoptosis in DFTD4 cells treated with AgGom or HiGom was measured using an Annexin V-FITC Apoptosis detection kit in combination with a Canto II high-throughput fluorescence-activated cell sorter (BD Biosciences, USA). Briefly, cells were seeded at a density of 100,000 cells/well in a round-bottom 96-well plate and treated with 50 µg/mL AgGom or HiGom for 24 h. The cells were collected mechanically, washed twice with PBS and once with wash buffer provided by the manufacturer. Cells were stained simultaneously with FITC-labelled annexin V and PI for 30 min in the dark and at room temperature before being analysed.

DFTD4 cells [4] = experiment: Mitochondrial membrane potential (Rhodamine 123); type: cell-based, Tasmanian devil (Sarcophilus harrisii); conditions: 50 µg/mL, 24 h, vs. vehicle
Method: We measured the mitochondrial membrane potential (MMP) using Rhodamine 123 (Rhod-123) (Sigma-Aldrich, Australia), a cationic dye that is localised in mitochondria. Loss-of-MMP results in loss-of-Rhod-123 fluorescence. Approximately 1 × 10^6 DFTD4 cells treated with AgGom or HiGom at 50 µg/mL for 24 h were collected and resuspended in 0.1 ml of culture medium, stained with 10 µg/mL Rhod-123 for 30 min, and then washed with PBS. The intracellular concentration of Rho123 was determined immediately after by flow cytometry (BD Biosciences, USA) using an excitation wavelength of 488 nm. The data were analysed using FlowJo v10.06 (FlowJo, USA).

DFTD4 cells [5] = experiment: qRT-PCR of cell cycle check-point, pro-survival and apoptosis genes; type: cell-based, Tasmanian devil (Sarcophilus harrisii); conditions: 50 μg/mL, vs. vehicle
Method: Total RNA was extracted from both untreated (control) and gomesin-treated DFTD4 cells using an RNeasy kit (Qiagen, Australia) and 1 µg was reverse-transcribed into cDNA using SensiFast (Bioline, UK). Quantitative real time-PCR (qRT-PCR) to quantitate mRNA expression was performed on a LightCycler Instrument (Roche Molecular Biochemicals, Australia) with Tasmanian devil 18S used as the reference (housekeeper) gene. All primers are listed in Supplementary.

DFTD4 cells [6] = experiment: Cell cycle analysis (PI, flow cytometry); type: cell-based, Tasmanian devil (Sarcophilus harrisii); conditions: 50 μg/mL, 24 h, mean ± SEM, three independent experiments
Method: DFTD4 cells were synchronised by removing serum from the medium for ~24 h. Cells were then transferred into medium containing serum and treated with AgGom or HiGom at 50 µg/mL for 24 h. Cells were detached mechanically, washed with PBS and fixed with 70% ethanol for ~1 h at 4 °C. Ethanol was removed by centrifugation (453 g for 5 min) and cells were washed with PBS. Cells were treated with 5 µL of 10 µg/mL ribonuclease A to remove RNA contamination and further incubated for 1 h at 37 °C to allow release of low-molecular weight DNA. Cell pellets were stained with 10 µL of propidium iodide (PI) (1 mg/ml) and analysed at a maximum emission of 605 nm using a LSR Fortessa 5 analyser (BD Biosciences, San Diego, CA, US). Approximately 10,000 events were recorded and data were analysed using FlowJo software v10.06 (FlowJo, US).

cultured DFTD cells = conditions: cited from earlier work
Description: In this pioneer study, we examined for the first time, in our knowledge, the therapeutic potential of spider-venom peptides against DFTD. Our study provides a molecular and mechanistic characterisation of the mode of action of gomesin peptides to prevent the proliferation of DFTD cells. This is especially relevant since the Tasmanian devil population has declined by at least 80%[1] and currently the therapeutic strategies to slow down the progression of DFTD in infective-devils have been ineffective. That was the case of vincristine, a chemotherapeutic agent used in human and veterinary medici ...

Row | Compound | ROS (DFTD4 cells [1]) | EC50 (µg/mL) DFTD2 (DFTD2 cells) [µg/mL] | cell viability / anti-proliferative activity in DFTD4 cells (DFTD4 cells [2]; 50 µg/mL, 48 h) | EC50 (DFTD4 cells [2]; DFTD4 cells, 48 h exposure, three independent experiments in triplicate) [µg/mL] | EC50 (µg/mL) DFTD1 (DFTD1 cells) [µg/mL] | deleterious effects on FIBS viability (FIBS cells) | early or late apoptotic cell ratio (DFTD4 cells [3]) | necrosis of DFTD cells compared to untreated cells (DFTD4 cells [3]) | MMP (DFTD4 cells [4]) | expression of BCL2 (DFTD4 cells [5]) | expression of p21 (DFTD4 cells [5]) | expression of p53 (DFTD4 cells [5]) | expression of pro-survival gene MCL1 (DFTD4 cells [5]) | p27 expression (DFTD4 cells [5]) | G0/G1 (DFTD4 cells [6]) | G2/M (DFTD4 cells [6]) | S-phase (DFTD4 cells [6]) | apoptotic activity against cultured DFTD cells (cultured DFTD cells)
1 | ZCRRLCYKQRCVTYCRGR-NH2 (bicyclic or more) [AgGom, 18-residue spider peptide gomesin first isolated from hemocytes of Acanthoscurria gomesiana] | significant increase in ROS | 12.29 | dramatically reduced the cell viability | 25.25 | 20.4 | not statistically significant | not altered | significantly increased necrosis | significant decrease in MMP | enhanced | induction | enhanced | induction | statistically significant increase | 39.9 ± 1.32 | 14.3 ± 0.9 | 11.47 ± 1.35 | 
2 | CC(C)Cn1cnc2c(N)nc3ccccc3c21 [imiquimod] |  |  |  |  |  |  |  |  |  |  |  |  |  |  |  |  |  | displayed apoptotic activity
